From patent publication US20250161338A1, “Compounds for Anti-aging Intervention” (AGENCY FOR SCIENCE, TECHNOLOGY AND RESEARCH, priority 2022, published 2025)
Counter-ions that a name gives are not always drawn.

How the values were obtained:
[1] = system: prototrophic yeast strain (CEN.PK113-7D); experiment: Propidium iodide fluorescence-based CLS method in yeast (incl. high-throughput screening); assay type: cell-based, Saccharomyces cerevisiae; conditions: for Yeast CLS increase: Yes/No call of the screen;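 on PI intensity: untreated reference is eight DMSO and water control wells per plate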
Procedure: Yeast strain was recovered from frozen glycerol stock at 30° C. on YPD agar medium. Yeast was left to propagate in SD medium overnight at 30° C. with shaking at 220 revolutions per minute (rpm). Cells propagated overnight were diluted to a starting optical density at 600 nm (OD600) of approximately 0.2 in fresh SD medium to begin the chronological lifespan (CLS) experiments.
(§1) CLS experiments were performed in 96-well plates with 200 μL yeast culture. Cellular inoculums were transferred into 96-well plates containing serially double-diluted concentrations (0 to 10 nM) of rapamycin. Cellular inoculum was transferred into 96-well plates containing serially double-diluted concentrations (0 to 8 mM) of 2,5-anhydro-D-mannitol, D-fructose, D-mannitol, D-maltose, and D-sorbitol in SD medium. Cells were incubated at 30° C., and the growth was measured at different time points. […] Cell survival was quantified at various age time points by three different approaches: (i) PI fluorescence-based method, (ii) outgrowth in YPD liquid medium, and (iii) spotting assay (FIG. 1).
Yeast cells (40 μL) from different age time points were transferred into a second 96-well plate (different to the 96-well plate in which the CLS analysis as outlined above was performed). Cells were washed and incubated in 100 μL 1×phosphate buffered saline (PBS) with propidium iodide (PI) (5 μg/mL) for 15 minutes in the dark. Positive and negative control samples were included for quantitative analysis. Positive control (cells boiled at 100° C. for 15 minutes) was PI-stained and processed in the same 96-well plate. Samples without PI-stained cells served as the negative control. After incubation, cells were washed and resuspended in 100 μL PBS. The fluorescence reading of the samples (excitation and emission wavelengths at 535 nm and 617 nm, respectively) and OD600 were measured with a microplate reader (BioTek, Winooski, Vermont, United States). The fluorescence intensity of each sample was normalized with OD600. The background fluorescence signal of the unstained negative sample was subtracted from the normalized fluorescence intensity of each sample. The obtained fluorescence intensity of the positive control (boiled dead cells) was considered 0% cell survival. Cell death was validated by allowing the boiled dead cells to grow in medium. Cell survival at different age time points of samples were calculated by normalizing the fluorescence intensity with positive control sample (boiled cells).
High-throughput screening of various chemicals was tested using the same protocol for the propidium iodide fluorescence-based method as described above. The prototrophic yeast strain (CEN.PK113-7D) was grown in the synthetic defined medium with different chemical reagents at their respective single testing concentration (Table 1) in addition to eight replicates of DMSO and water controls in 96-well plates at 30° C.

[2] = system: prototrophic yeast strain (CEN.PK113-7D); experiment: Yeast outgrowth in YPD liquid medium (CLS of aged cells); assay type: cell-based, Saccharomyces cerevisiae; conditions: age point day 14
Procedure: as §1
Outgrowth (OD600) of aged cells was measured by the microplate reader. Quantification of cell survival for each age point was determined as relative to Day 1 (considered 100% cell survival). This quantification was performed by using the formula,
[formula] • where OutgrowthDay n refers to the OD600 nm absorbance reading recorded on a specific day, OutgrowthDay 1 refers to the OD600 nm absorbance reading recorded on the first day where 100% cell survival is assumed.
The CLS of the aged cells was further determined by the yeast outgrowth in YPD liquid medium method as described above. […] At chronological age point day 14, 3-μL of culture were transferred to a second 96-well plate containing 200 μL YPD medium.

[3] = concentration tested 100 μM, solvent DMSO or water, chronological age point Day 7 (72 h growth = Day 1), lower = more survival
[4] = concentration tested 100 μM, OD600 nm after 24 h in YPD at 30° C.

Molecule | Yeast CLS increase ([1]; concentration tested 30 μg/mL) | PI intensity ([1]; concentration tested 30 μg/mL, solvent water, age point Day 7) | Outgrowth ([2]; concentration tested 30 μg/mL, OD600 nm after 24 h in YPD) | Yeast CLS increase ([1]; concentration tested 100 μM) | PI intensity [1, 3] | Outgrowth [2, 4]
Gentamicin (sulfate) [reference compound] | No | 73,296.2 | 0.1 | – | – | –
O=c1cc(O)cc(/C=C/c2ccc(O)c(O)c2)o1 [Hispidin] | – | – | – | No | 67,098.8 | 0.1
COc1cc(O)c(C(C)=O)c(OC)c1 [Xanthoxylin] | – | – | – | No | 70,352.1 | 0.1
Vincristine (sulfate) [reference compound] | – | – | – | No | 62,812.1 | 0.1
OC(CCN1CCCCC1)(c1ccccc1)C1CC2C=CC1C2 (stereo not drawn) [Biperiden (Hydrochloride), reference compound] | – | – | – | No | 67,178.1 | 0.2
C[C@H](O)[C@H](O)c1cnc2nc(N)[nH]c(=O)c2n1 [6-Biopterin] | – | – | – | No | 75,974.5 | 0.1
Oc1ccc2ccccc2c1 [2-Naphthol] | – | – | – | No | 72,298.9 | 0.1
C=C1CC[C@H](O)C/C1=C/C=C1\CCC[C@]2(C)[C@@H]([C@H](C)CCCC(C)(C)O)CC[C@@H]12 [Calcifediol, reference compound] | – | – | – | No | 60,747.4 | 0.2
O=C(O)[C@@H](O)Cc1ccccc1 [(S)-2-Hydroxy-3-phenylpropanoic acid] | – | – | – | No | 72,969.5 | 0.1
NCCCNCCSP(=O)(O)O [Amifostine, reference compound] | – | – | – | No | 69,013.2 | 0.2
c1ncc2[nH]cnc2n1 [Purine] | – | – | – | No | 53,185.1 | 0.1
Cn1cc(C[C@H](N)C(=O)O)c2ccccc21 [(S)-Indoximod] | – | – | – | No | 78,648.2 | 0.1
CC1(C)CCC2=C(O1)c1ccccc1C(=O)C2=O [β-Lapachone] | – | – | – | No | 67,892.9 | 0.1
CC(=O)OCc1ccccc1 [Benzyl acetate] | – | – | – | No | 74,321.9 | 0.1
CSCCNc1nc(SCCC(F)(F)F)nc2c1ncn2[C@@H]1O[C@H](COP(=O)([O-])OP(=O)([O-])C(Cl)(Cl)P(=O)([O-])[O-])[C@@H](O)[C@H]1O.[Na+].[Na+].[Na+].[Na+] [Cangrelor (tetrasodium), reference compound] | – | – | – | No | 83,173.6 | 0.1
N#CCCN [β-Aminopropionitrile] | – | – | – | No | 65,865.6 | 0.1
CC(=O)N[C@@H](Cc1ccc(O)cc1)C(=O)O [N-Acetyl-L-tyrosine] | – | – | – | No | 57,322.5 | 0.1
O[C@H]([C@H](O)[C@@H]1CO1)[C@H]1CO1 [VAL-083] | – | – | – | No | 63,325.5 | 0.1
O=C(O)c1ccc(O)cc1O [2,4-Dihydroxybenzoic acid] | – | – | – | No | 76,326.3 | 0.1
CC(C)(CO)C(O)C(=O)NCCCO (racemic) [DL-Panthenol] | – | – | – | No | 71,468.6 | 0.1
N[C@@H](CCO)C(=O)O [L-Homoserine] | – | – | – | No | 60,922.1 | 0.1
